From the NIST ThermoML archive (doi:10.1021/je800234h)
± gives the expanded uncertainty stated by the source.

Assay: mn = molality of the nth substance listed, in mol/kg
Details: Liquid, Vibrating tube method

**Q.** With `[Ca+2].[Cl-].[Cl-]` [calcium chloride] + CCO as the molecule, how does the mass density (348.15 K, 20480 kPa, m1 = 0.1743) read?
**A.** 776.42 ± 0.42 kg/m3

**Q.** And the mass density (348.15 K, 20640 kPa, m1 = 1.55)?
**A.** 872.48 ± 0.39 kg/m3

**Q.** What about the mass density (348.15 K, 20670 kPa, m1 = 0.9896) of the same molecule?
**A.** 834.64 ± 0.4 kg/m3

**Q.** And the mass density (348.15 K, 20840 kPa, m1 = 0.4379)?
**A.** 796.01 ± 0.41 kg/m3

**Q.** And the mass density (348.15 K, 25040 kPa, m1 = 0.4379)?
**A.** 799.76 ± 0.43 kg/m3

**Q.** And the mass density (348.15 K, 25060 kPa, m1 = 1.266)?
**A.** 855.9 ± 0.41 kg/m3

**Q.** And the mass density (348.15 K, 25160 kPa, m1 = 0.09327)?
**A.** 774.52 ± 0.45 kg/m3

**Q.** What about the mass density (348.15 K, 25190 kPa, m1 = 1.55) of the same molecule?
**A.** 876.08 ± 0.4 kg/m3

**Q.** What about the mass density (348.15 K, 25620 kPa, m1 = 0.1743) of the same molecule?
**A.** 781.15 ± 0.44 kg/m3

**Q.** What about the mass density (348.15 K, 25740 kPa, m1 = 0.6899) of the same molecule?
**A.** 818.02 ± 0.42 kg/m3

**Q.** And the mass density (348.15 K, 25940 kPa, m1 = 0.9896)?
**A.** 839.09 ± 0.42 kg/m3

**Q.** What about the mass density (348.15 K, 30420 kPa, m1 = 0.1743) of the same molecule?
**A.** 785.25 ± 0.47 kg/m3

**Q.** What about the mass density (348.15 K, 30480 kPa, m1 = 0.09327) of the same molecule?
**A.** 779.14 ± 0.47 kg/m3

**Q.** What about the mass density (348.15 K, 30610 kPa, m1 = 0.6899) of the same molecule?
**A.** 821.98 ± 0.44 kg/m3

**Q.** And the mass density (348.15 K, 30610 kPa, m1 = 1.266)?
**A.** 860.42 ± 0.42 kg/m3

**Q.** What about the mass density (348.15 K, 30730 kPa, m1 = 0.4379) of the same molecule?
**A.** 804.51 ± 0.45 kg/m3

**Q.** What about the mass density (348.15 K, 30750 kPa, m1 = 1.55) of the same molecule?
**A.** 880.1 ± 0.41 kg/m3

**Q.** What about the mass density (348.15 K, 30860 kPa, m1 = 0.9896) of the same molecule?
**A.** 842.93 ± 0.43 kg/m3

**Q.** And the mass density (348.15 K, 35150 kPa, m1 = 0.4379)?
**A.** 807.92 ± 0.47 kg/m3

**Q.** And the mass density (348.15 K, 35290 kPa, m1 = 1.55)?
**A.** 883.06 ± 0.42 kg/m3

**Q.** What about the mass density (348.15 K, 35370 kPa, m1 = 0.9896) of the same molecule?
**A.** 846.17 ± 0.44 kg/m3

**Q.** What about the mass density (348.15 K, 35410 kPa, m1 = 0.09327) of the same molecule?
**A.** 783.08 ± 0.5 kg/m3

**Q.** What about the mass density (348.15 K, 35480 kPa, m1 = 1.266) of the same molecule?
**A.** 864.22 ± 0.43 kg/m3

**Q.** What about the mass density (348.15 K, 35640 kPa, m1 = 0.6899) of the same molecule?
**A.** 825.77 ± 0.46 kg/m3

**Q.** What about the mass density (348.15 K, 35860 kPa, m1 = 0.1743) of the same molecule?
**A.** 789.53 ± 0.49 kg/m3

**Q.** What about the mass density (348.15 K, 39260 kPa, m1 = 0.09327) of the same molecule?
**A.** 785.92 ± 0.52 kg/m3

**Q.** And the mass density (348.15 K, 39380 kPa, m1 = 0.4379)?
**A.** 810.96 ± 0.49 kg/m3

**Q.** What about the mass density (348.15 K, 39490 kPa, m1 = 0.6899) of the same molecule?
**A.** 828.45 ± 0.47 kg/m3

**Q.** And the mass density (348.15 K, 39880 kPa, m1 = 1.55)?
**A.** 885.77 ± 0.43 kg/m3

**Q.** What about the mass density (348.15 K, 39960 kPa, m1 = 1.266) of the same molecule?
**A.** 867.59 ± 0.44 kg/m3

**Q.** And the mass density (348.15 K, 39970 kPa, m1 = 0.1743)?
**A.** 792.5 ± 0.51 kg/m3

**Q.** What about the mass density (348.15 K, 39970 kPa, m1 = 0.9896) of the same molecule?
**A.** 849.2 ± 0.46 kg/m3

**Q.** And the mass density (373.15 K, 370 kPa, m1 = 0.09327)?
**A.** 722.5 ± 0.33 kg/m3

**Q.** What about the mass density (373.15 K, 390 kPa, m1 = 1.55) of the same molecule?
**A.** 828.22 ± 0.35 kg/m3

**Q.** And the mass density (373.15 K, 420 kPa, m1 = 1.266)?
**A.** 808.17 ± 0.35 kg/m3

**Q.** What about the mass density (373.15 K, 680 kPa, m1 = 0.1743) of the same molecule?
**A.** 728.72 ± 0.33 kg/m3

**Q.** And the mass density (373.15 K, 870 kPa, m1 = 0.6899)?
**A.** 766.95 ± 0.34 kg/m3

**Q.** And the mass density (373.15 K, 920 kPa, m1 = 0.9896)?
**A.** 788.74 ± 0.34 kg/m3

**Q.** What about the mass density (373.15 K, 940 kPa, m1 = 0.4379) of the same molecule?
**A.** 749.01 ± 0.34 kg/m3

**Q.** What about the mass density (373.15 K, 4980 kPa, m1 = 1.266) of the same molecule?
**A.** 813.49 ± 0.36 kg/m3

**Q.** And the mass density (373.15 K, 5040 kPa, m1 = 0.9896)?
**A.** 794.18 ± 0.36 kg/m3

**Q.** And the mass density (373.15 K, 5060 kPa, m1 = 0.1743)?
**A.** 735.26 ± 0.35 kg/m3

**Q.** What about the mass density (373.15 K, 5140 kPa, m1 = 1.55) of the same molecule?
**A.** 834.25 ± 0.36 kg/m3

**Q.** What about the mass density (373.15 K, 5150 kPa, m1 = 0.6899) of the same molecule?
**A.** 772.7 ± 0.35 kg/m3

**Q.** What about the mass density (373.15 K, 5170 kPa, m1 = 0.4379) of the same molecule?
**A.** 754.76 ± 0.35 kg/m3

**Q.** And the mass density (373.15 K, 5180 kPa, m1 = 0.09327)?
**A.** 729.16 ± 0.35 kg/m3

**Q.** And the mass density (373.15 K, 9780 kPa, m1 = 1.266)?
**A.** 818.85 ± 0.37 kg/m3

**Q.** What about the mass density (373.15 K, 10150 kPa, m1 = 1.55) of the same molecule?
**A.** 840.15 ± 0.37 kg/m3

**Q.** What about the mass density (373.15 K, 10480 kPa, m1 = 0.09327) of the same molecule?
**A.** 736.08 ± 0.38 kg/m3

**Q.** What about the mass density (373.15 K, 10480 kPa, m1 = 0.4379) of the same molecule?
**A.** 761.55 ± 0.37 kg/m3

**Q.** What about the mass density (373.15 K, 10740 kPa, m1 = 0.1743) of the same molecule?
**A.** 743.09 ± 0.38 kg/m3

**Q.** And the mass density (373.15 K, 10740 kPa, m1 = 0.6899)?
**A.** 779.75 ± 0.37 kg/m3

**Q.** And the mass density (373.15 K, 10740 kPa, m1 = 0.9896)?
**A.** 801.21 ± 0.37 kg/m3

**Q.** And the mass density (373.15 K, 15190 kPa, m1 = 0.4379)?
**A.** 767.19 ± 0.4 kg/m3

**Q.** What about the mass density (373.15 K, 15210 kPa, m1 = 0.6899) of the same molecule?
**A.** 785.01 ± 0.39 kg/m3

**Q.** What about the mass density (373.15 K, 15250 kPa, m1 = 0.1743) of the same molecule?
**A.** 748.79 ± 0.4 kg/m3

**Q.** And the mass density (373.15 K, 15260 kPa, m1 = 1.266)?
**A.** 824.65 ± 0.39 kg/m3

**Q.** And the mass density (373.15 K, 15290 kPa, m1 = 1.55)?
**A.** 845.7 ± 0.39 kg/m3

**Q.** And the mass density (373.15 K, 15360 kPa, m1 = 0.9896)?
**A.** 806.48 ± 0.39 kg/m3

**Q.** What about the mass density (373.15 K, 15720 kPa, m1 = 0.09327) of the same molecule?
**A.** 742.49 ± 0.41 kg/m3

**Q.** What about the mass density (373.15 K, 20030 kPa, m1 = 1.266) of the same molecule?
**A.** 829.44 ± 0.4 kg/m3

**Q.** What about the mass density (373.15 K, 20140 kPa, m1 = 1.55) of the same molecule?
**A.** 850.48 ± 0.4 kg/m3

**Q.** What about the mass density (373.15 K, 20160 kPa, m1 = 0.4379) of the same molecule?
**A.** 772.75 ± 0.42 kg/m3

**Q.** What about the mass density (373.15 K, 20280 kPa, m1 = 0.09327) of the same molecule?
**A.** 747.72 ± 0.43 kg/m3

**Q.** What about the mass density (373.15 K, 20640 kPa, m1 = 0.1743) of the same molecule?
**A.** 754.98 ± 0.43 kg/m3

**Q.** What about the mass density (373.15 K, 20750 kPa, m1 = 0.9896) of the same molecule?
**A.** 812.16 ± 0.41 kg/m3

**Q.** And the mass density (373.15 K, 20860 kPa, m1 = 0.6899)?
**A.** 791.16 ± 0.42 kg/m3

**Q.** And the mass density (373.15 K, 25130 kPa, m1 = 0.4379)?
**A.** 777.9 ± 0.44 kg/m3

**Q.** And the mass density (373.15 K, 25180 kPa, m1 = 0.1743)?
**A.** 759.68 ± 0.45 kg/m3

**Q.** And the mass density (373.15 K, 25410 kPa, m1 = 1.266)?
**A.** 834.54 ± 0.42 kg/m3

**Q.** And the mass density (373.15 K, 25670 kPa, m1 = 0.09327)?
**A.** 753.48 ± 0.46 kg/m3

**Q.** And the mass density (373.15 K, 25750 kPa, m1 = 1.55)?
**A.** 855.45 ± 0.41 kg/m3

**Q.** And the mass density (373.15 K, 25840 kPa, m1 = 0.6899)?
**A.** 796.14 ± 0.44 kg/m3

**Q.** What about the mass density (373.15 K, 25940 kPa, m1 = 0.9896) of the same molecule?
**A.** 817.13 ± 0.43 kg/m3

**Q.** And the mass density (373.15 K, 29980 kPa, m1 = 1.266)?
**A.** 838.62 ± 0.43 kg/m3

**Q.** What about the mass density (373.15 K, 30140 kPa, m1 = 1.55) of the same molecule?
**A.** 858.93 ± 0.42 kg/m3

**Q.** What about the mass density (373.15 K, 30150 kPa, m1 = 0.6899) of the same molecule?
**A.** 800.1 ± 0.45 kg/m3

**Q.** What about the mass density (373.15 K, 30160 kPa, m1 = 0.9896) of the same molecule?
**A.** 820.83 ± 0.44 kg/m3

**Q.** And the mass density (373.15 K, 30240 kPa, m1 = 0.4379)?
**A.** 782.77 ± 0.47 kg/m3
